In assay [1] the test system is no loop RNA (RNA, hairpin) GGGAGAGGGUUUAAUCAGUACGAAAGUACUGAUUGGAUCCGCAAGG
As to the kind of experiment: competition dialysis. The note with it: 110 mM KCl, 2 mM MgCl2, 2 mM CaCl2, 8 mM Na phosphate; 1 mM EDTA, pH 7.0, 20–22°C; 1 μM ligand, 1.56 μM RNA; bound ligand concentration.

Assay [2] has as its system U·U RNA hairpin (5'CNG/3'GNC panel) (RNA, mismatch bulge abasic) GGGAGAGGGUUUAAUCUGUACGAAAGUACUGAUUGGAUCCGCAAGG
The assay can be described thus: competition dialysis. The settings on record: 110 mM KCl, 2 mM MgCl2, 2 mM CaCl2, 8 mM Na phosphate; 1 mM EDTA, pH 7.0, 20–22°C; 1 μM ligand, 1.56 μM RNA; bound ligand concentration.

Assay [3] concerns A-G RNA hairpin (5'CNG/3'GNC panel) (RNA, mismatch bulge abasic) GGGAGAGGGUUUAAUCAGUACGAAAGUACGGAUUGGAUCCGCAAGG
As to the kind of experiment: competition dialysis. The settings on record: 110 mM KCl, 2 mM MgCl2, 2 mM CaCl2, 8 mM Na phosphate; 1 mM EDTA, pH 7.0, 20–22°C; 1 μM ligand, 1.56 μM RNA; bound ligand concentration.

Assay [4] deals with RNA hairpin with six 5'CUG/3'GUC internal loops (RNA, repeat) GGGAGAGGGUUUAAUCUGCUGCUGCUGCUGCUGUACGAAAGUACUGCUGCUGCUGCUGCUGAUUGGAUCCGCAAGG
As to the kind of experiment: competition dialysis. The settings on record: 110 mM KCl, 2 mM MgCl2, 2 mM CaCl2, 8 mM Na phosphate; 1 mM EDTA, pH 7.0, 20–22°C; 1 μM ligand, 1.33 μM RNA; compared with MBNL1 protein.

Assay [5] deals with Cy3-(CUG)10 RNA (RNA, repeat) CUGCUGCUGCUGCUGCUGCUGCUGCUGCUG
As to the kind of experiment: fluorescence titration (Cy3 emission). The settings on record: HEPES-buffered saline; 0.5% DMSO, 0.005% Tween-20; one-site fit.

With `COC(=O)c1ccc(O)c2nc3c(C=O)c(O)c(-c4c(O)c(C=O)c5nc6c(O)ccc(C(=O)OC)c6nc5c4O)c(O)c3nc12`, the “Bound Dilomofungin (Cb)” value amounted to 228 ± 77 nM in assay [1] and 77.8 ± 33 nM in assay [3]. Also, the binding entry in assay [2] and in assay [4] was “yes” throughout. In assay [5], this compound returned a KD of 606 ± 300 nM.
Regarding `COC(=O)c1ccc(O)c2nc3c(C=O)c(O)cc(O)c3nc12`, the binding result in assay [2] and in assay [4] was “yes” in each case. The KD in assay [5] is on record as 998 ± 180 nM.

A word on the KD: it is the concentration at which binding is half-saturated. Read a high KD as a looser complex.
